Test results reported in patent US20250368666A1, “INDAZOLE COMPOUNDS” (TYRA BIOSCIENCES, INC., priority 2022, published 2025).
Counter-ions that a name gives are not always drawn. Like-named read-outs stand apart in the source and are kept apart here.

Legend:
FGFR1 = target: T1, FGFR1 (Homo sapiens, UniProt P11362); assay: Kinase binding assay (kinase-tagged T7 phage, affinity beads, qPCR), Kd; conditions: read-out: FGFR1 (Kd nM)
T1 construct: made in house; host or cells: E. coli (BL21-derived), T7 phage
Method in brief: (§1)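 Kd obtained by Levenberg–Marquardt Hill-equation fit (slope −1) to qPCR-measured kinase retained on ligand-coated streptavidin beads.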

FGFR2 = target: T2, FGFR2 (Homo sapiens, UniProt P21802); assay: as above; conditions: read-out: FGFR2 (Kd nM)
T2 construct: made in house; host or cells: E. coli (BL21-derived), T7 phage
Method in brief: as §1

FGFR3 = target: T3, FGFR3 (Homo sapiens, UniProt P22607); assay: as above; conditions: read-out: FGFR3 (Kd nM)
T3 construct: made in house; host or cells: E. coli (BL21-derived), T7 phage
Method in brief: as §1

FGFR3 (V555M) = target: T4, FGFR3 (V555M) (Homo sapiens, UniProt P22607, V555M); assay: as above; conditions: V555M mutant; read-out: FGFR3 (V555M) (Kd nM)
T4 construct: made in house; host or cells: E. coli (BL21-derived), T7 phage
Method in brief: as §1

FGFR4 = target: T5, FGFR4 (Homo sapiens, UniProt P22455); assay: as above; conditions: read-out: FGFR4 (Kd nM)
T5 construct: made in house; host or cells: E. coli (BL21-derived), T7 phage
Method in brief: as §1

[1] = test system: HuH7 cell line (FGF19 amplification); assay: Cancer cell line cell viability assay (Cell Titer-Glo), 120 hr; type: cell-based; conditions: Homo sapiens, Huh-7
From the text: Experimental Purpose: To detect the change of intracellular ATP by Cell Titer-Glo® and to evaluate the inhibitory effect of the compounds on cancer cell lines by determining the in vitro IC50 value of the compounds.
Cell Titer-Glo® 2.0 Luminescent cell viability assay reagent was purchased from Promega (Madison, WI). KG-1, KATO-III, and MDA-MB-453 cell lines were purchased from American Type Culture Collection (Manassas, VA). RT112/84 cell line was purchased from Millipore-Sigma (St. Louis, MO). HuH7 cells were purchased from Seikisui Xenotech (Kansas City, KS). RT112/84 and MDA-MB-453 cells were cultured in RPMI1640 media supplemented with 10% fetal bovine serum. KG-1 and KATO-III cell lines were cultured in IMDM media supplemented with 20% FBS. HuH7 cells were cultured in IMDM media supplemented with 10% FBS. Cultures were maintained at 37° C. in a humidified atmosphere of 5% CO2 and 95% air.
Cell Viability Assay Procedure: Cells were plated in 96-well clear bottom/white plates (Corning #3903) at a range of densities depending on the optimal assay window (5,000-20,000 cells/well in […] of media), incubated overnight. The next day, test compound DMSO stock solutions were made at 10 mM and […] final concentration. Compounds were then added to cells in a 9-dose, 4-fold dilution series starting at 3 μM with an HP 300e Digital Dispenser (each dose was applied in triplicate). DMSO was backfilled to each well up to 301 nL total volume of test compound+DMSO, and a total of 301 nL DMSO was added to a control/no test compound well in triplicate. The cells in cell culture plates were incubated with the compounds at 37° C. and 5% CO2 for 72 hours-120 hours depending on the cell line. Then 50 μl of Cell Titer Glo 2.0 reagent was added to each well of the cell culture plates. The contents were covered from light and mixed on an orbital shaker at room temperature for minimum of 10 min. Luminescence was recorded by a Clariostar Plus Microplate Reader (BMG Labtech, Cary, NC). Cells were assessed as a percentage of DMSO only treated control cells. Curves were plotted and IC50 values were calculated using the GraphPad Prism 9 program based on a sigmoidal dose-response equation (log (inhibitor) vs. response—Variable slope, 4-parameter).

[2] = kinase binding assay, 11-point 3-fold dilution series

T2 sequence (P21802 22-821): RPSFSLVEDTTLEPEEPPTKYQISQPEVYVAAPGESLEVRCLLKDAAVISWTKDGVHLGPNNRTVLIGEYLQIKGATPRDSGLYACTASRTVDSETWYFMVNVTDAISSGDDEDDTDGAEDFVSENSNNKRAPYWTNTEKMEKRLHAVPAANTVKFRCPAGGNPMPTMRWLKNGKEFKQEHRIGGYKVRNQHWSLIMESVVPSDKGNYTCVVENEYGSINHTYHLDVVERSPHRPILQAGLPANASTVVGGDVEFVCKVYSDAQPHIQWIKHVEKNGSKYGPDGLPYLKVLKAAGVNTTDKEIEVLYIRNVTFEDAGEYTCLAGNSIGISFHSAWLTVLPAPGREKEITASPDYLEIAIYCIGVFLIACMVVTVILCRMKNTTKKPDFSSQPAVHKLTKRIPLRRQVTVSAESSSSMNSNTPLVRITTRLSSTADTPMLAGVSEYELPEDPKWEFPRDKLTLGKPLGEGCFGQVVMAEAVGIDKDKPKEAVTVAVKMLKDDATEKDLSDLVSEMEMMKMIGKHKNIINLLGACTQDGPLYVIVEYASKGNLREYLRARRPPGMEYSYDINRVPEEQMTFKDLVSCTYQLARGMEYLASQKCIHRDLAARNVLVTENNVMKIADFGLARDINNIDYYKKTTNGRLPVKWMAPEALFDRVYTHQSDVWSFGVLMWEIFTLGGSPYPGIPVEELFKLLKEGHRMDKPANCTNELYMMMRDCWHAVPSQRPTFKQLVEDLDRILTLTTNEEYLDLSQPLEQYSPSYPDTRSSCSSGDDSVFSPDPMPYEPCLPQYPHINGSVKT
T1 sequence (P11362 22-822): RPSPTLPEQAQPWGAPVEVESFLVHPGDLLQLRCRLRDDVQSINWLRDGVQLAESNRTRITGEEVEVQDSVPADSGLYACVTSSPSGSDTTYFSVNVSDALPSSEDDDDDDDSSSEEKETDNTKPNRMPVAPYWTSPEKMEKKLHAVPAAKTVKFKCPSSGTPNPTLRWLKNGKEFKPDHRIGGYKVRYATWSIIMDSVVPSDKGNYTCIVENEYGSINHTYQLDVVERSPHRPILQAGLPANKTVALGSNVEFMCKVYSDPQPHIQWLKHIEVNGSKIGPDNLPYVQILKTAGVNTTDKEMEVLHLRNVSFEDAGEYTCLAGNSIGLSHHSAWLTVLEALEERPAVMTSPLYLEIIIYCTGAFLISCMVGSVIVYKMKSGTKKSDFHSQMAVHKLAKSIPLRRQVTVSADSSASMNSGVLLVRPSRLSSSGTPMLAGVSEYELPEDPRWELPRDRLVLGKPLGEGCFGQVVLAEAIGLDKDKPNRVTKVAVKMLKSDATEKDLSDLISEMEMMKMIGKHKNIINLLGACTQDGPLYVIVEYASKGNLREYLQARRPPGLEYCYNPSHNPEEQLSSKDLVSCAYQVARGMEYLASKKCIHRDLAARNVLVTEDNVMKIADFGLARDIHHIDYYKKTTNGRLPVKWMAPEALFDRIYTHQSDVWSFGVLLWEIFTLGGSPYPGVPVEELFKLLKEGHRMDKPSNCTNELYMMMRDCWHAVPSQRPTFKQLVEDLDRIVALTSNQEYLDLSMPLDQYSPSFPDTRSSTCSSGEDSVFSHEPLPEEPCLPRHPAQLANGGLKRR
T3 sequence (P22607 23-806): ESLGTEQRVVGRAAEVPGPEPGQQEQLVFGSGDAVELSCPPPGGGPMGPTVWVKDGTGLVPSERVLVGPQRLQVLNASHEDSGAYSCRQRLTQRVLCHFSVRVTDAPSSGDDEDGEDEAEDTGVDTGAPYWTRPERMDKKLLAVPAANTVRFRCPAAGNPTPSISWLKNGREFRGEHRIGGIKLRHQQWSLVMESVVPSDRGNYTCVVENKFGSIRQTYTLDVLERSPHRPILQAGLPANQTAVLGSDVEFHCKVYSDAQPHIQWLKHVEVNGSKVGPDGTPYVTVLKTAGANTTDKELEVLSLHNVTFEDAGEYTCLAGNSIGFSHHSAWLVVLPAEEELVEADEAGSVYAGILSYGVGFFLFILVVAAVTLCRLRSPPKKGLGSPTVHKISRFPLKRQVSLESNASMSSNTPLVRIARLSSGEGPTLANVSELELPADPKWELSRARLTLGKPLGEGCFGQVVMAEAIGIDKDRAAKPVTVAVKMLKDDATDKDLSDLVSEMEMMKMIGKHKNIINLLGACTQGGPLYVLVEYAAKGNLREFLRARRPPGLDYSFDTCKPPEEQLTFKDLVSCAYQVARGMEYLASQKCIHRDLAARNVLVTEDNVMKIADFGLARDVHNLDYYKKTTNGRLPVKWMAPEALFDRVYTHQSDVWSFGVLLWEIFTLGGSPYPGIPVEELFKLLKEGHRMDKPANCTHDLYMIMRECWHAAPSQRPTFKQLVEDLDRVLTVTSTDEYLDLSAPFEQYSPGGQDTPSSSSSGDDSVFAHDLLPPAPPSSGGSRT
T5 sequence (P22455 22-802): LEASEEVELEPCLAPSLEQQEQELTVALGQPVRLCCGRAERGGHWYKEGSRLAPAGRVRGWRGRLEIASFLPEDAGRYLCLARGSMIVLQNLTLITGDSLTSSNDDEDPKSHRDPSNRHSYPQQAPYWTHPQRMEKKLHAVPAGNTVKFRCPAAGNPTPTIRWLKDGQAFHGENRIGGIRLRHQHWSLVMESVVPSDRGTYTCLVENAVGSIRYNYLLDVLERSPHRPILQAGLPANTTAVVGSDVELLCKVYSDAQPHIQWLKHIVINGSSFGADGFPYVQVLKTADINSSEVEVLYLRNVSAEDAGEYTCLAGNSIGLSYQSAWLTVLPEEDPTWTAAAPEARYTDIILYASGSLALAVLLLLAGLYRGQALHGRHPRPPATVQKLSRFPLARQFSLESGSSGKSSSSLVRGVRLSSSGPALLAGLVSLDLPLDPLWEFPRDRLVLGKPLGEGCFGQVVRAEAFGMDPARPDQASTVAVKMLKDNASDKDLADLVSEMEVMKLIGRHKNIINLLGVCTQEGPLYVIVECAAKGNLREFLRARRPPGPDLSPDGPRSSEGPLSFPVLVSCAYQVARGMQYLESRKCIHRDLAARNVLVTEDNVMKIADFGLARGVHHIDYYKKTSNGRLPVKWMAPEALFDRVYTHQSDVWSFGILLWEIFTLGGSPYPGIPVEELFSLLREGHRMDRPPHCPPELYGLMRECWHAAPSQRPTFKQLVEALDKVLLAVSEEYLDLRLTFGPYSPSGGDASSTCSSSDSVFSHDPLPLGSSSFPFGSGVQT
T4 sequence (P22607 23-806 V555M): as the sequence (P22607 23-806) above, with V533M counted along it

Compound | Kd (FGFR1) | Kd (FGFR2) | Kd (FGFR3) | Kd (FGFR3 (V555M)) | Kd (FGFR4) | IC50 [1] | Kd (FGFR1; [2]) | Kd (FGFR2; [2]) | Kd (FGFR3; [2]) | Kd (FGFR4; [2])
COc1cc2[nH]nc(-c3cnc(N4CC(C)(NCC5CC5)C4)c(C#N)c3)c2cc1O[C@@H](C)c1c(Cl)cncc1Cl [Example 333, (S)-2-(3-((cyclopropyl-methyl)amino)-3-methylazetidin-1-yl)-5-(5-(1-(3,5-dichloropyridin-4-yl)ethoxy)-6-methoxy-1H-indazol-3-yl)nicotinonitrile] | 300 to 1000 nM | > 1000 nM | 50 to 300 nM | 50 to 300 nM | 1 to 50 nM | 200 to 1000 nM | – | – | – | –
Cc1ncc(Cl)c([C@@H](C)Oc2ccc3[nH]nc(-c4cnc(N5CC(C)(OC(C)C)C5)c(C#N)c4)c3c2)c1Cl [Example 13, 5-[5-[(1R)-1-(3,5-dichloro-2-methyl-4-pyridyl)ethoxy]-1H-indazol-3-yl]-2-(3-isopropoxy-3-methyl-azetidin-1-yl)pyridine-3-carbonitrile] | > 1000 nM | > 1000 nM | 50 to 300 nM | 50 to 300 nM | 1 to 50 nM | 200 to 1000 nM | – | – | – | –
COc1cc2[nH]nc(-c3cnc(N4CC(C)(CS(C)(=O)=O)C4)c(C#N)c3)c2cc1O[C@@H](C)c1c(Cl)cncc1Cl [Example 332, (S)-5-(5-(1-(3,5-dichloropyridin-4-yl)ethoxy)-6-methoxy-1H-indazol-3-yl)-2-(3-methyl-3-((methyl-sulfonyl)meth-yl)azetidin-1-yl)nicotinonitrile] | > 1000 nM | > 1000 nM | 300 to 1000 nM | 300 to 1000 nM | 1 to 50 nM | 200 to 1000 nM | – | – | – | –
C[C@@H](Oc1ccc2[nH]nc(-c3cnc(N4CC(C)(N(C)C)C4)c(C#N)c3)c2c1)c1c(Cl)cncc1Cl [Example 29, (R)-5-(5-(1-(3,5-dichloropyridin-4-yl)ethoxy)-1H-indazol-3-yl)-2-(3-(dimethylamino)-3-methylazetidin-1-yl)nicotinonitrile] | 50 to 300 nM | 50 to 300 nM | 1 to 50 nM | 1 to 50 nM | 1 to 50 nM | 50 to 200 nM | – | – | – | –
C[C@@H](Oc1cc2c(-c3cnc(N4CC(C)(N5CCC5)C4)c(C#N)c3)n[nH]c2cc1F)c1c(Cl)cncc1Cl [Example 136, (R)-5-(5-(1-(3,5-dichloropyridin-4-yl)ethoxy)-6-fluoro-1H-indazol-3-yl)-2-(3′-methyl-[1,3′-biazetidin]-1′-yl)nicotinonitrile] | 1 to 50 nM | 1 to 50 nM | 1 to 50 nM | 1 to 50 nM | 1 to 50 nM | 50 to 200 nM | – | – | – | –
Cc1ncc(Cl)c([C@@H](C)Oc2ccc3[nH]nc(-c4cnc(N5CC(C)(N6CCOCC6)C5)c(C#N)c4)c3c2)c1Cl [Example 38, 5-[5-[(1R)-1-(3,5-dichloro-2-methyl-4-pyridyl)ethoxy]-1H-indazol-3-yl]-2-(3-methyl-3-morpholino-azetidin-1-yl)pyridine-3-carbonitrile] | 300 to 1000 nM | 50 to 300 nM | 1 to 50 nM | 1 to 50 nM | 1 to 50 nM | 50 to 200 nM | – | – | – | –
Cc1ncc(Cl)c([C@@H](C)Oc2ccc3[nH]nc(-c4cnc(N5CC(C)(N)C5)c(C#N)c4)c3c2)c1Cl [Example 39, 2-(3-amino-3-methyl-azetidin-1-yl)-5-[5-[(1R)-1-(3,5-dichloro-2-methyl-4-pyridyl)ethoxy]-1H-indazol-3-yl]pyridine-3-carbonitrile] | 50 to 300 nM | 50 to 300 nM | 1 to 50 nM | 1 to 50 nM | 1 to 50 nM | 50 to 200 nM | – | – | – | –

The remaining lines, values ahead:

Kd (FGFR1) | Kd (FGFR2) | Kd (FGFR3) | Kd (FGFR3 (V555M)) | Kd (FGFR4) | IC50 [1] | Kd (FGFR1; [2]) | Kd (FGFR2; [2]) | Kd (FGFR3; [2]) | Kd (FGFR4; [2]) | Compound
1 to 50 nM | 1 to 50 nM | 1 to 50 nM | 1 to 50 nM | 1 to 50 nM | 0.1 to 50 nM | – | – | – | – | COc1cc2[nH]nc(-c3cnc(N4CC(C)(N5C[C@@H]6C[C@H]5CO6)C4)c(C#N)c3)c2cc1O[C@H](C)c1c(Cl)cncc1Cl [Example 336, -(3-((1S,4S)-2-oxa-5-aza-bicyclo[2.2.1]hep-tan-5-y1)-3-methylazetidin-1-yl)-5-(5-((R)-1-(3,5-dichloropyridin-4-yl)ethoxy)-6-methoxy-1H-indazol-3-yl)nicotinonitrile]
1 to 50 nM | 1 to 50 nM | 1 to 50 nM | 1 to 50 nM | 1 to 50 nM | 0.1 to 50 nM | – | – | – | – | Cc1ncc(Cl)c([C@@H](C)Oc2ccc3[nH]nc(-c4cnc(N5CC(C)(NC6COC6)C5)c(C#N)c4)c3c2)c1Cl [Example 30, 5-[5-[(1R)-1-(3,5-dichloro-2-methyl-4-pyridyl)ethoxy]-1H-indazol-3-yl]-2-[3-methyl-3-(oxetan-3-ylamino)azetidin-1-yl]pyridine-3-carbonitrile]
1 to 50 nM | 1 to 50 nM | 1 to 50 nM | 1 to 50 nM | 1 to 50 nM | 0.1 to 50 nM | – | – | – | – | CCNC1(C)CN(c2ncc(-c3n[nH]c4ccc(O[C@H](C)c5c(Cl)cncc5Cl)cc34)cc2C#N)C1 [Example 35, (R)-5-(5-(1-(3,5-dichloropyridin-4-yl)ethoxy)-1H-indazol-3-yl)-2-(3-(ethylamino)-3-methylazetidin-1-yl)nicotinonitrile]
1 to 50 nM | 1 to 50 nM | 1 to 50 nM | 1 to 50 nM | 1 to 50 nM | 0.1 to 50 nM | – | – | – | – | COc1cc2[nH]nc(-c3cnc(N4CC5(CC5)C4)nc3)c2cc1O[C@H](C)c1c(Cl)cncc1Cl [Example 62, 3-[2-(5-azaspiro[2.3]hexan-5-yl)pyrimidin-5-yl]-5-[(1R)-1-(3,5-dichloro-4-pyridyl)ethoxy]-6-methoxy-1H-indazole]
50 to 300 nM | 1 to 50 nM | 1 to 50 nM | 1 to 50 nM | 1 to 50 nM | 0.1 to 50 nM | – | – | – | – | C[C@@H](Oc1cc2c(-c3cnc(N4CC(C)(CP(C)(C)=O)C4)c(C#N)c3)n[nH]c2cc1F)c1c(Cl)cncc1Cl [Example 11, (R)-5-(5-(1-(3,5-dichloropyridin-4-yl)ethoxy)-6-fluoro-1H-indazol-3-yl)-2-(3-((dimethylphosphoryl)methyl)-3-methylazetidin-1-yl)nicotinonitrile]
1 to 50 nM | 1 to 50 nM | 1 to 50 nM | – | 1 to 50 nM | 0.1 to 50 nM | – | – | – | – | CCC1(NCC2CC2)CN(c2ncc(-c3n[nH]c4cc(OC)c(O[C@H](C)c5c(Cl)cncc5Cl)cc34)cc2C#N)C1 [Example 348, (R)-2-(3-((Cyclopropylmethyl)amino)-3-ethylazetidin-1-yl)-5-(5-(1-(3,5-dichloropyridin-4-yl)ethoxy)-6-methoxy-1H-indazol-3-yl)nicotinonitrile dihydrochloride]
1 to 50 nM | 50 to 300 nM | 1 to 50 nM | – | 1 to 50 nM | 0.1 to 50 nM | – | – | – | – | COc1cc2[nH]nc(-c3cnc(N4CC(CC#N)(N(C)C(C)C)C4)c(C#N)c3)c2cc1O[C@H](C)c1c(Cl)cncc1Cl [Example 358, (R)-2-(3-(cyanomethyl)-3-(isopropyl(methyl)-amino)azetidin-1-yl)-5-(5-(1-(3,5-dichloropyridin-4-yl)ethoxy)-6-methoxy-1H-indazol-3-yl)nicotinonitrile]
– | – | – | – | – | 0.1 to 50 nM | 1 to 50 nM | 1 to 50 nM | 1 to 50 nM | 1 to 50 nM | COc1cc2[nH]nc(-c3cnc(N4CC[C@@](C)(NCC5CC5)C4)c(C#N)c3)c2cc1O[C@H](C)c1c(Cl)cncc1Cl [Example 409, 2-((R)-3-((cyclo-propylmethyl)-amino)-3-methylpyrrolidin-1-yl)-5-(5-((R)-1-(3,5-dichloropyridin-4-yl)ethoxy)-6-methoxy-1H-indazol-3-yl)nicotinonitrile]
